What was measured:
[1] = system: LNCaP (PSMA+); format: cell-based; details: for IC50: LNCaP (PSMA+); for S (selectivity): IC50 PC3 (PSMA−) / IC50 LNCaP (PSMA+); for TI for LNCaP: IC50 of free toxin / IC50 of conjugate
Description: (§1) Note: A direct comparison of all DUPA conjugates with amanitin was not performed in one experiment. The amanitin curve shown in the graph is derived from the direct comparison between HDP 30.2284 and amanitin.

[2] = system: PC3 (PSMA−); format: cell-based
Description: as §1

[3] = target: RNA-polymerase II (Homo sapiens, UniProt P24928); details: complex between amanitin and RNA-polymerase II; cited from earlier work

SMILES | IC50 [1] [nM] | IC50 [2] [nM] | Kd [3] [nM] | S (selectivity) [1] | TI for LNCaP [1]
CC[C@H](C)[C@@H]1NC(=O)CNC(=O)[C@@H]2Cc3c([nH]c4cc(O)ccc34)[S+]([O-])C[C@@H](NC(=O)CNC1=O)C(=O)N[C@@H](CC(N)=O)C(=O)N1C[C@H](O)C[C@H]1C(=O)N[C@@H]([C@@H](C)[C@@H](O)CO)C(=O)N2 (stereo in doubt) [α-amanitin, reference compound] | 479 | 213 | 3 | – | –
CC[C@H](C)[C@@H]1NC(=O)CNC(=O)[C@H]2Cc3c([nH]c4cc(OCc5ccc(NC(=O)[C@H](C)NC(=O)[C@@H](NC(=O)CCCCCN6C(=O)CC(SC[C@H](NC(=O)[C@H](Cc7ccccc7)NC(=O)[C@H](Cc7ccccc7)NC(=O)CCCCCCCNC(=O)CCC(NC(=O)NC(CCC(=O)O)C(=O)O)C(=O)O)C(=O)O)C6=O)C(C)C)cc5)ccc34)[S+]([O-])C[C@H](NC(=O)CNC1=O)C(=O)N[C@@H](CC(N)=O)C(=O)N1C[C@H](O)C[C@H]1C(=O)N[C@@H]([C@@H](C)[C@@H](O)CO)C(=O)N2 (stereo partly drawn) [HDP 30.2284, 6′-O-[6-(3-(((DUPA-Aoc-Phe-Phe-Cys)-sulfanyl)-2,5-dioxopyrrolidin-1-yl)-hexanamido)-Val-Ala-PAB]-α-amantin] | 0.863 | 1570 | – | 1819 | 555
CC[C@H](C)[C@@H]1NC(=O)CNC(=O)[C@@H]2Cc3c([nH]c4cc(OCCCCCCN5C(=O)CC(SC[C@H](NC(=O)[C@H](Cc6ccccc6)NC(=O)[C@H](Cc6ccccc6)NC(=O)CCCCCCCNC(=O)CC[C@H](NC(=O)N[C@@H](CCC(=O)O)C(=O)O)C(=O)O)C(=O)O)C5=O)ccc34)[S@+]([O-])C[C@H](NC(=O)CNC1=O)C(=O)N[C@@H](CC(N)=O)C(=O)N1C[C@H](O)C[C@H]1C(=O)N[C@@H]([C@@H](C)[C@@H](O)CO)C(=O)N2 (stereo partly drawn) [HDP 30.2301, 6′-O-[6-(((DUPA-Aoc-Phe-Phe-Cys)-sulfanyl)-2,5-dioxopyrrolidin-1-yl)-hexyl]-α-amantin] | 6.11 | 1520 | – | 249 | 78
CC[C@H](C)[C@@H]1NC(=O)CNC(=O)[C@@H]2Cc3c([nH]c4cc(OCc5ccc(NC(=O)[C@H](C)NC(=O)[C@@H](NC(=O)CN6C(=O)C(SCCOCCOCCOCCOCCOCCOCCOCCNC(=O)[C@H](Cc7ccccc7)NC(=O)[C@H](Cc7ccccc7)NC(=O)CCCCCCCNC(=O)CC[C@H](NC(=O)N[C@@H](CCC(=O)O)C(=O)O)C(=O)O)=C(SCCOCCOCCOCCOCCOCCOCCOCCNC(=O)[C@H](Cc7ccccc7)NC(=O)[C@H](Cc7ccccc7)NC(=O)CCCCCCCNC(=O)CC[C@H](NC(=O)N[C@@H](CCC(=O)O)C(=O)O)C(=O)O)C6=O)C(C)C)cc5)ccc34)[S@+]([O-])C[C@H](NC(=O)CNC1=O)C(=O)N[C@@H](CC(N)=O)C(=O)N1C[C@H](O)C[C@H]1C(=O)N[C@@H]([C@@H](C)[C@@H](O)CO)C(=O)N2 [HDP 30.2490, 6′-O-[(3,4-(((DUPA-Aoc-Phe-Phe-PEGn)-sulfanyl)-2,5-dioxopyrrolidin-1-yl)-propanamido)-Val-Ala-PAB]-α-amantin] | – | – | – | 52.5 | 62
CC[C@H](C)[C@@H]1NC(=O)CNC(=O)C2Cc3c([nH]c4cc(OCc5ccc(NC(=O)[C@H](C)NC(=O)[C@@H](NC(=O)CSC[C@@H](NC(=O)[C@H](Cc6ccccc6)NC(=O)[C@H](Cc6ccccc6)NC(=O)CCCCCCCNC(=O)CCC(NC(=O)NC(CCC(=O)O)C(=O)O)C(=O)O)C(=O)O)C(C)C)cc5)ccc34)[S+]([O-])CC(NC(=O)CNC1=O)C(=O)N[C@@H](CC(N)=O)C(=O)N1CC(O)C[C@H]1C(=O)N[C@@H]([C@@H](C)[C@@H](O)CO)C(=O)N2 (stereo partly drawn) [HDP 30.2515, 6′-O-[2-((DUPA-Aoc-Phe-Phe-Cys)-sulfanyl)-acetamido-Val-Ala-PAB]-α-amantin] | 4.51 | 663 | – | – | –
CC[C@H](C)[C@@H]1NC(=O)CNC(=O)[C@@H]2Cc3c([nH]c4cc(OCc5ccc(NC(=O)[C@H](C)NC(=O)[C@@H](NC(=O)CCN6C(=O)CC(SC[C@H](NC(=O)[C@H](Cc7ccccc7)NC(=O)[C@H](Cc7ccccc7)NC(=O)CCCCCCCNC(=O)CC[C@H](NC(=O)N[C@@H](CCC(=O)O)C(=O)O)C(=O)O)C(=O)O)C6=O)C(C)C)cc5)ccc34)[S@+]([O-])C[C@H](NC(=O)CNC1=O)C(=O)N[C@@H](CC(N)=O)C(=O)N1C[C@H](O)C[C@H]1C(=O)N[C@@H]([C@@H](C)[C@@H](O)CO)C(=O)N2 (stereo partly drawn) [HDP 30.2535, 6′-O-[3-(3-(((DUPA-Aoc-Phe-Phe-Cys)-sulfanyl)-2,5-dioxopyrrolidin-1-yl)-propanamido)-Val-Ala-PAB]-α-amantin] | – | – | – | 191 | 253
CC[C@H](C)[C@@H]1NC(=O)CNC(=O)[C@@H]2Cc3c([nH]c4cc(OCc5ccc(NC(=O)[C@H](CCCNC(N)=O)NC(=O)[C@@H](NC(=O)CCCCCN6C(=O)CC(SC[C@H](NC(=O)[C@H](Cc7ccccc7)NC(=O)[C@H](Cc7ccccc7)NC(=O)CCCCCCCNC(=O)CC[C@H](NC(=O)N[C@@H](CCC(=O)O)C(=O)O)C(=O)O)C(=O)O)C6=O)C(C)C)cc5)ccc34)[S@+]([O-])C[C@H](NC(=O)CNC1=O)C(=O)N[C@@H](CC(N)=O)C(=O)N1C[C@H](O)C[C@H]1C(=O)N[C@@H]([C@@H](C)[C@@H](O)CO)C(=O)N2 (stereo partly drawn) [HDP 30.2537, 6′-O-[6-(3-(((DUPA-Aoc-Phe-Phe-Cys)-sulfanyl)-2,5-dioxopyrrolidin-1-yl)-hexanamido)-Val-Cit-PAI3]-α-amantin] | – | – | – | 148 | 371
CC[C@H](C)[C@@H]1NC(=O)CNC(=O)[C@@H]2Cc3c([nH]c4cc(OCCC(C)SSC[C@H](NC(=O)[C@H](Cc5ccccc5)NC(=O)[C@H](Cc5ccccc5)NC(=O)CCCCCCCNC(=O)CC[C@H](NC(=O)N[C@@H](CCC(=O)O)C(=O)O)C(=O)O)C(=O)O)ccc34)[S@+]([O-])C[C@H](NC(=O)CNC1=O)C(=O)N[C@@H](CC(N)=O)C(=O)N1C[C@H](O)C[C@H]1C(=O)N[C@@H]([C@@H](C)[C@@H](O)CO)C(=O)N2 (stereo partly drawn) [HDP 30.2589] | – | – | – | 22.5 | 53

From patent US11583569B2, “PSMA-targeting amanitin conjugates” (Heidelberg Pharma Research GmbH, priority 2017, dated 2023)
